Experimental data published in patent publication US12435091B2, “RNA-binding protein multimerization inhibitors and methods of use thereof” (THE UAB RESEARCH FOUNDATION, priority 2020, dated 2025).
Like-named read-outs stand apart in the source and are kept apart here.

What was measured:
HuR = target: T1, HuR (Homo sapiens, UniProt Q15717); assay: cell-based split firefly luciferase-HuR dimerization assay
T1 construct: expressed in transfected cells; host or cells: U251 glioma cells, doxycycline-inducible constructs
T1 sequence (Q15717 whole entry): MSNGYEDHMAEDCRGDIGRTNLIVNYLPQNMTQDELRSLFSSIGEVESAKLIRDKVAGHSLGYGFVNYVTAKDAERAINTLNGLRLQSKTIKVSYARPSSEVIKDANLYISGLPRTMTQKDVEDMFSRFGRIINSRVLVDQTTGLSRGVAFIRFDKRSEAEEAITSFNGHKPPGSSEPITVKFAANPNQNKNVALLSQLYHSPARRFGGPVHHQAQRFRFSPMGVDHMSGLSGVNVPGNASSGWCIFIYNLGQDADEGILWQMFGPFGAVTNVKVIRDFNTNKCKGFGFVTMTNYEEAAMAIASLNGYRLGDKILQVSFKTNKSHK
In short: (§1)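 U251 cells carrying HuR fused to N- or C-terminal split firefly luciferase halves (dimer reporter) or full-length Fluc (control); constructs induced with doxycycline 0.75 ug/ml for 48 h. Compounds at various concentrations vs vehicle for 6 h. Luciferin-driven luminescence read; mean+SD.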

[1] = test system: U251 cells expressing Fluc construct; assay: control Fluc (full length luciferase) reporter assay in U251 cells; assay type: cell-based
In short: as §1

Log D at pH 7.4 = assay type: physicochemical
Experimental: Selected compounds were assessed for their aqueous solubility, Log D and mouse and human liver microsomal stability.

primary human astrocytes = assay: cleaved caspase-3 immunostaining in primary human astrocytes; assay type: cell-based; conditions: up to 15 uM
Experimental: At the end of experiments, neurons and astrocytes were rinsed briefly with PBS and fixed by using 4% paraformaldehyde, pH 7.4 for 13 minutes at room temperature. Triton X-100 (0.3%) in PBST buffer (i.e., PBS with 0.1% Tween 20) was used for cell permeabilization for 30 minutes at room temperature. Cells were rinsed with PBST buffer 3 times for 10 minutes after fixation. Blocking buffer (3% BSA, 22.52 mg/ml glycine in PBST) was used to block unspecific antibody binding for 30 minutes at room temperature. Primary cleaved caspase 3 antibody (Cell Signaling Technology; Danvers, MA) at 1:200 dilution in PBST buffer with 1% BSA was utilized overnight at 4° C. for cleaved caspase 3 staining. The next day, cells were rinsed four times for 10 minutes with PBST buffer and then were incubated with secondary antibody (Alexa Fluor 594, goat anti-rabbit IgG, Invitrogen (Carlsbad, CA), 1:2000/5000 dilution) in PBST buffer with 1% BSA for 1 hour at room temperature in the dark. Next, cells were rinsed with PBST buffer 4 times for 10 minutes in the dark. Cell nucleus were stained with DAPI (4′,6-diamidino-2-phenylindole). Cell images were obtained with EVOS Fl (Life Technologies; Eugene, OR) imaging system.
The cellular metabolism declined by about 44% after treatment with SRI-42127, 25 uM for 48 hours as shown by FIG. 5E. […]

[2] = test system: HuR cytoplasmic translocation in primary microglial cells; assay: Imagestream single cell flow cytometry of HuR location in LPS-activated microglia; assay type: cell-based, mouse; conditions: 1 μM
Experimental: Cultured primary microglial cells isolated from neonatal mouse brain were treated with LPS to achieve activation. Cells were then treated with varying doses of SRI-42127 or vehicle. Imagestream single cell flow cytometry was used to track the location of HuR within microglial cells as depicted in FIG. 11, Panel A. DAPI was used as a flow marker for nuclear localization. For each cell, the percentage of HuR immunofluorescence that colocalized with the nuclear compartment versus the cytoplasmic compartment was quantified.
In the unstimulated state (DMSO), the characteristic nuclear predominance of HuR was observed as reflected by a low percentage of cells with high HuR in the cytoplasm. With LPS stimulation, there was an ˜8-fold increase in the percent of cells with high levels of HuR in the cytoplasm (˜60%). With SRI-42127 treatment, there was a significant dose-dependent decrease in cells with high cytoplasmic HuR. At 1 μM of SRI-42127, the percent of cells with high HuR was similar to resting (unactivated) microglia (˜10%).

spinal cord injury = assay: mid-thoracic contusion spinal cord injury in mice; assay type: in vivo
Experimental: Wild-type male mice were subjected to a mid-thoracic contusion injury and then treated with SRI-42127 (15 mg/kg) every 8 hours for 4 days, starting 1 hour after injury. […] Not to be bound by theory, similar to spinal cord injury, chronic pain signaling is triggered by activation of microglia and astroglia in the spinal cord and production of inflammatory mediators (e.g. TNF-α, IL-1β, IL-6, INOS, CCL2) that induce hyperexcitation of sensory neurons in the dorsal horn. Mice underwent sciatic nerve lesioning to produce a spared nerve injury and then received SRI-42127 (15 mg/kg) or vehicle every 6 hours for 4 days (starting 1 h after injury). Mechanical sensitivity was assessed at day 7 post-injury. […] Following this test, a subset of mice in the DMSO-treated group was given an acute administration of SRI-42127 (or DMSO) and their mechanical sensitivity was tested at 30 minutes and 60 minutes post-administration. Acute treatment with SRI-42127 reversed allodynia in these mice for at least 60 minutes (p<0.01, FIG. 21, Panel D).

CN(c1ccc2ncc(-c3ccc4cn[nH]c4c3)n2n1)C1CCOCC1 [Compound 19]
HuR inhibition activity (in words) (HuR): active | HuR N/C Imax % Inh (HuR; Concn 50 uM): 90% | IC50 (HuR; U251 cells co-expressing HuR-Nluc and HuR-Cluc, 6 hours of treatment, read-out: HuR IC50): 1200 ± 200 nM | IC50 (HuR; U251 with dox-inducible HuR-dimerization reporters, after increase in HuR dimerization by two fold, 6 hours, read-out: IC50 for inhibition of HuR dimerization): 1900 ± 100 nM | IC50 (HuR; U251 with dox-inducible HuR-dimerization reporters, before increase in HuR dimerization, 6 hours, read-out: IC50 for inhibition of HuR dimerization): 1200 ± 100 nM | maximum inhibition of HuR dimerization (HuR; after 6 hours of cell treatment): 90±1% | IC50 (HuR; split luciferase HuR dimerization assay, compounds administered for 6 hours, read-out: HuR IC50): 1500 nM | decrease of luminescence signal from cells overexpressing the control Fluc construct ([1]; 6 hours, represents the cytotoxic effect): 26±9% | inhibition at 50 µM ([1]; Homo sapiens, U-251, 6 h, Concn 50 uM, read-out: Fluc Imax % Inh): 26% | logD (Log D at pH 7.4): 3.1 | cleaved caspase-3 activation (primary human astrocytes): significant alterations in cleaved caspase-3 activation were not observed | percent of cells with high cytoplasmic HuR [2]: ~10% | increase in surviving neurons in the epicenter of injury (spinal cord injury; 15 mg/kg every 8 hours for 4 days, stereology 2 weeks post injury): > 2 fold | increase in neuronal counts by stereology (spinal cord injury; 4 weeks post SCI (FIG. 21, Panel B)): > 50%
